Among the data in PubChem BioAssay (NCI) are GI50 and TGI values, retold here.

Test systems include TK-10 renal; UACC-62 melanoma; HCT-15 colon; NCI-H460 lung; ACHN renal; MALME-3M melanoma; A549 NSCLC; KM12 colon; RXF 393 renal; SNB-75 CNS.
Common to all, as to assay: growth of human tumour cells (NCI), 48 h

Molecules are shown by their SMILES. Several values for one entry are separate records, joined by “and”; a condition that tells them apart may be missing. Identical values can stand only once.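 The compound was tested at five concentrations on cells cultured in 96-well plates, with a 48-hour exposure period. GI50 marks 50% less growth. TGI: total growth inhibition.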 Where only a bound is given, the exact number is not on record here.

Turning to `O=C1c2ccccc2C(=O)c2c1ccc(C(Br)Br)c2[N+](=O)[O-]`, the GI50 in the experiment with TK-10 renal was 1.95 µM; in the experiment on UACC-62 melanoma, 1.31 µM; with HCT-15 colon it was 1.52 µM; in the experiment on NCI-H460 lung, 1.89 µM; with ACHN renal it was 1.53 µM; in the experiment with MALME-3M melanoma, 1.94 µM. Also, the GI50 with A549 NSCLC was 17.6 µM; in the experiment with KM12 colon, 1.85 µM; in the experiment with RXF 393 renal, 1.26 µM; in the experiment with SNB-75 CNS, 14.1 µM. Moreover, the TGI with TK-10 renal turned out to be 3.84 µM; in the experiment on UACC-62 melanoma it was 3.1 µM; in the experiment with HCT-15 colon it was 2.93 µM; in the experiment with NCI-H460 lung, 5.09 µM; with ACHN renal it was 2.86 µM; with MALME-3M melanoma, 3.71 µM. Moreover, the TGI was determined as 33.6 µM in the experiment with A549 NSCLC, 3.81 µM in the experiment on KM12 colon, 2.72 µM in the experiment on RXF 393 renal and 28.7 µM in the experiment with SNB-75 CNS.

For the molecule `CCCCCCCCCCCC(=O)OCC1OC(n2cc(F)c(=O)[nH]c2=O)C(NC(=O)OCc2ccccc2)C(O)C1O` (centres undefined), the TGI in the experiment with TK-10 renal was greater than 100 µM; with UACC-62 melanoma it was 38.6 µM; with HCT-15 colon, 43.5 µM; in the experiment on NCI-H460 lung, 34.3 µM; in the experiment on ACHN renal, greater than 100 µM; with MALME-3M melanoma, 47.9 µM. Also, the TGI is 43.2 µM in the experiment on A549 NSCLC, 42.9 µM with KM12 colon, 73.6 µM in the experiment with RXF 393 renal and 28.1 µM in the experiment with SNB-75 CNS.

For `COC(=O)C(/C(=N/NC(=O)c1ccncc1)C(=O)Nc1ccccc1OC)c1nc2ccc(Cl)cc2[nH]c1=O` (centres undefined), the TGI in the experiment with TK-10 renal, with UACC-62 melanoma, with HCT-15 colon, in the experiment with NCI-H460 lung, in the experiment on ACHN renal and in the experiment on MALME-3M melanoma was greater than 100 µM each time. The TGI in the experiment on A549 NSCLC, in the experiment with KM12 colon, in the experiment on RXF 393 renal and in the experiment on SNB-75 CNS was greater than 100 µM each time.

As to `C/C(=N\NC(N)=O)C(CN1CCCCC1)C(c1ccccc1)c1c(O)c2ccccc2oc1=O` (centres undefined), the TGI in the experiment with TK-10 renal, in the experiment on UACC-62 melanoma, in the experiment on HCT-15 colon, in the experiment on NCI-H460 lung, in the experiment with ACHN renal and in the experiment on MALME-3M melanoma was greater than 100 µM throughout. Moreover, the TGI in the experiment with A549 NSCLC, in the experiment on KM12 colon, in the experiment on RXF 393 renal and with SNB-75 CNS was greater than 100 µM each time.

With `N/C(=N\NS(=O)(=O)c1ccccc1)Oc1ccc(Cl)cc1`, the TGI with TK-10 renal, in the experiment with UACC-62 melanoma, in the experiment with HCT-15 colon, in the experiment with NCI-H460 lung, with ACHN renal and in the experiment with MALME-3M melanoma was greater than 100 µM in each case. In addition, the TGI in the experiment with A549 NSCLC is greater than 100 µM; in the experiment on KM12 colon it was greater than 100 µM; in the experiment on RXF 393 renal, 58.1 µM; with SNB-75 CNS, greater than 100 µM.

Consider `COc1cc([C@@H]2c3cc4c(cc3[C@@H](NC(=O)c3ccc(N)cc3)C3COC(=O)[C@@H]32)OCO4)cc(OC)c1O` (some centres undefined), for which the TGI is 29.7 µM in the experiment on TK-10 renal; 10.9 µM in the experiment on UACC-62 melanoma; 32 µM in the experiment with HCT-15 colon; 10.9 µM in the experiment with NCI-H460 lung; 4.9 µM in the experiment on ACHN renal; 19.8 µM with MALME-3M melanoma. Moreover, the TGI in the experiment on A549 NSCLC was found to be 12.8 µM; in the experiment with KM12 colon it was 13.8 µM; in the experiment with RXF 393 renal, 67.6 µM; with SNB-75 CNS, 6.56 µM.

For `CC(C)C[C@H](NC(=O)[C@H](CCc1ccccc1)NC(=O)CN1CCOCC1)C(=O)N[C@@H](Cc1ccccc1)C(=O)N[C@@H](CC(C)C)C(=O)[C@@]1(C)CO1`, the GI50 in the experiment on TK-10 renal is 0.0144 µM; in the experiment with UACC-62 melanoma, 0.033 µM; in the experiment on HCT-15 colon, 0.083 µM; in the experiment with NCI-H460 lung, 0.0235 µM; in the experiment on ACHN renal, 0.0366 µM; with MALME-3M melanoma, 0.0527 µM. Moreover, the GI50 in the experiment with A549 NSCLC is 0.0203 µM; in the experiment with KM12 colon it was less than 0.01 µM; with RXF 393 renal, less than 0.014 µM; with SNB-75 CNS, 0.018 µM. Further, the TGI in the experiment on TK-10 renal was found to be 0.0934 µM; in the experiment with UACC-62 melanoma, 0.114 µM; with HCT-15 colon, 1.6 µM; in the experiment with NCI-H460 lung, 0.153 µM; with ACHN renal, 2.66 µM; in the experiment with MALME-3M melanoma, 0.586 µM. For the same molecule, the TGI in the experiment on A549 NSCLC was 0.204 µM; in the experiment with KM12 colon, 0.0199 µM; in the experiment on RXF 393 renal, 0.0246 µM; in the experiment with SNB-75 CNS it was 0.0509 µM.

Regarding `CN1/C(=C\C(I)C(I)C2=[N+](C)c3ccccc3C2(C)C)C(C)(C)c2ccccc21` (centres undefined), the GI50 was 0.521 µM in the experiment on TK-10 renal; 0.303 µM with UACC-62 melanoma; 0.997 µM in the experiment on HCT-15 colon; 0.205 µM in the experiment on NCI-H460 lung; 0.665 µM in the experiment with ACHN renal; 0.277 µM in the experiment on MALME-3M melanoma. Besides, the GI50 with A549 NSCLC was 0.283 µM; in the experiment on KM12 colon it was 0.33 µM; in the experiment with RXF 393 renal it was 0.497 µM; in the experiment on SNB-75 CNS, 0.416 µM. For the same molecule, the TGI was 27.9 µM in the experiment with TK-10 renal; 14.2 µM with UACC-62 melanoma; greater than 37.6 µM in the experiment on HCT-15 colon; 10.7 µM in the experiment with NCI-H460 lung; 26.4 µM with ACHN renal; 14 µM in the experiment with MALME-3M melanoma. The TGI with A549 NSCLC was determined as 18.3 µM; with KM12 colon it was 11.8 µM; in the experiment on RXF 393 renal, 3.6 µM; in the experiment with SNB-75 CNS it was 9.77 µM.

Turning to `COC(=O)C1=C(OC)c2cc3c(cc2C(c2cc(OC)c(OC)c(OC)c2)C1C(=O)OC)OCO3` (centres undefined), the TGI with TK-10 renal, in the experiment on UACC-62 melanoma, in the experiment with HCT-15 colon, with NCI-H460 lung, in the experiment on ACHN renal and in the experiment with MALME-3M melanoma was greater than 100 µM throughout. Moreover, the TGI in the experiment with A549 NSCLC, in the experiment on KM12 colon, in the experiment with RXF 393 renal and with SNB-75 CNS was greater than 100 µM in each case.

As to `CCSc1oc(-c2ccccc2)nc1[P+](c1ccccc1)(c1ccccc1)c1ccccc1`, the GI50 was 0.258 µM with TK-10 renal; 0.305 µM in the experiment on UACC-62 melanoma; 0.622 µM in the experiment with HCT-15 colon; 0.298 µM in the experiment on NCI-H460 lung; 0.309 µM in the experiment on ACHN renal; 0.287 µM with MALME-3M melanoma. Further, the GI50 is 0.301 µM in the experiment on A549 NSCLC, 0.233 µM with KM12 colon, 0.331 µM in the experiment with RXF 393 renal and 0.177 µM with SNB-75 CNS. Besides, the TGI with TK-10 renal was determined as 2.66 µM; in the experiment with UACC-62 melanoma it was 1.44 µM; in the experiment on HCT-15 colon, 4.66 µM; in the experiment with NCI-H460 lung it was 1.08 µM; in the experiment on ACHN renal, 1.13 µM; in the experiment on MALME-3M melanoma, 1.3 µM. Also, the TGI with A549 NSCLC was 4.71 µM; in the experiment with KM12 colon, 1.09 µM; in the experiment on RXF 393 renal it was 1.93 µM; with SNB-75 CNS it was 0.727 µM.

As for `CCN1CCN(c2nc(NNC(=O)Cc3ccccc3)nc(N3CCN(C(c4ccccc4)c4ccccc4)CC3)n2)CC1`, the GI50 in the experiment on TK-10 renal was 1.97 µM; in the experiment with UACC-62 melanoma, 1.71 µM; in the experiment with HCT-15 colon, 1.9 µM; with NCI-H460 lung, 1.89 µM; with ACHN renal it was 1.65 µM; in the experiment on MALME-3M melanoma, 1.64 µM. In addition, the GI50 in the experiment on A549 NSCLC is 2.17 µM; with KM12 colon, 2.07 µM; with RXF 393 renal, 1.92 µM; with SNB-75 CNS it was 1.78 µM. For the same molecule, the TGI with TK-10 renal was 3.85 µM; with UACC-62 melanoma it was 3.46 µM; in the experiment on HCT-15 colon, 3.76 µM; with NCI-H460 lung, 3.63 µM; in the experiment on ACHN renal, 3.07 µM; in the experiment on MALME-3M melanoma, 3.29 µM. Also, the TGI is 5.23 µM in the experiment on A549 NSCLC, 4.35 µM in the experiment with KM12 colon, 4.08 µM in the experiment on RXF 393 renal and 4.36 µM with SNB-75 CNS.

In the case of `C=CN1C(=O)OC(c2ccccc2)C1c1ccccc1` (centres undefined), the GI50 in the experiment on TK-10 renal, in the experiment on UACC-62 melanoma, in the experiment on HCT-15 colon, in the experiment with NCI-H460 lung, in the experiment with ACHN renal and in the experiment with MALME-3M melanoma was greater than 100 µM in each case. Besides, the GI50 with A549 NSCLC, in the experiment on KM12 colon and in the experiment on RXF 393 renal was greater than 100 µM each time. The TGI in the experiment with TK-10 renal, in the experiment on UACC-62 melanoma, with HCT-15 colon, in the experiment on NCI-H460 lung, in the experiment on ACHN renal and with MALME-3M melanoma was greater than 100 µM throughout. Moreover, the TGI in the experiment on A549 NSCLC is greater than 100 µM; with KM12 colon it was greater than 100 µM; with RXF 393 renal, greater than 100 µM; in the experiment on SNB-75 CNS, 21.9 µM and > 100 µM.

Turning to `CCCS(=O)(=O)Nc1ccc(F)c(C(=O)c2c[nH]c3ncc(-c4ccc(Cl)cc4)cc23)c1F`, the GI50 with TK-10 renal was 5.99 µM and 5.48 µM; with UACC-62 melanoma it was 0.0241 µM and 0.034 µM; in the experiment with HCT-15 colon it was 4.45 µM and 4.1 µM; in the experiment with NCI-H460 lung, 3.01 µM and 5 µM; in the experiment with ACHN renal, 3.92 µM and 4.77 µM; in the experiment with MALME-3M melanoma, 0.0161 µM and 0.0331 µM. Further, the GI50 with A549 NSCLC was 3.46 µM and 6.38 µM; in the experiment with KM12 colon, 4.17 µM and 6.02 µM; in the experiment on RXF 393 renal, 1.89 µM and 3.53 µM; with SNB-75 CNS, 2.48 µM and 2.38 µM. Moreover, the TGI was 34.6 µM and > 10 µM in the experiment with TK-10 renal; 0.496 µM and 0.485 µM in the experiment with UACC-62 melanoma; 17.7 µM and > 10 µM in the experiment on HCT-15 colon; 14 µM and > 10 µM in the experiment on NCI-H460 lung; 15.9 µM and > 10 µM in the experiment on ACHN renal; 0.0772 µM in the experiment on MALME-3M melanoma. Moreover, the TGI was 25 µM and > 10 µM in the experiment with A549 NSCLC; 16.8 µM and > 10 µM in the experiment on KM12 colon; 6.58 µM and > 10 µM with RXF 393 renal; 16.6 µM and > 10 µM with SNB-75 CNS.
